The text below walks through data of patent US9095591B2, “Pharmaceutical composition for use in the treatment of glaucoma” (Institut National de la Sante et de la Recherche Medicale …, priority 2010, dated 2015).

Experiment [1] relates to rat model of surgically-induced glaucoma. Put plainly: Intraocular pressure (IOP, TonoPen) in rat model of surgically-induced glaucoma (episcleral vein cauterization). It is filed as in vivo, Brown Norway rats. Particulars: for effect on IOP in control (nonglaucomatous, non-operated) eyes: subconjunctival injection; for effect on IOP in glaucomatous eyes (CXCR4 antagonist comparison): subconjunctival injections, FIG. 3. How it is done:
In order to test the functionality of putative CXCR3 blocking compounds on intraocular pressure (IOP), an in vivo test is necessary. For that purpose a model of local eye hypertonia is highly relevant. The model of ocular hypertonia in rats by episcleral vein occlusion (Garcia-Valenzuela et al., 1995) as described in the figures can be used to test such molecules.
Subconjunctival injections of NBI74330 (1 μM) or vehicle were performed in glaucoma eyes and in control eyes. One single injection of NBI (A) induced a reduction in IOP during 3 days (p<0.001). Two injections of NBI (A and B) induced a decrease in IOP during 12 days (p<0.001). […] (In vivo measurements of the IOP using TonoPen).
Male 8-week-old Brown Norway rats weighing 300-400 g were housed in Jussieu animal house (UMRS968, Vision Institute, Paris, France). All experiments were conducted in accordance with the Association for Research in Vision and Ophthalmology for the Use of Animals in Ophthalmic research. Ocular integrity was checked using slit lamp biomicroscope. Surgical model of elevated IOP was induced in the right eye of each rat by cauterization of three episcleral veins after conjunctival dissection as previously reported [Bayer A U et Al., 2001 and Garcia-Valenzuela E et Al., 1995] under general anaesthesia (intra peritoneal injection of ketamine 75 mg/kg and xylazine 10 mg/kg). Left eyes underwent conjunctival dissection only as controls. After the surgery, animals were maintained for a 1-month period and monitored for IOP three times a week using a handheld tonometer (Tonopen, Medtronics, Jacksonville, Fla.) without sedation. 30 animals presenting a stable elevated IOP were included and randomly divided in three equal groups: in both eyes, 10 rats received one subconjunctival injection of NBI74330 (1 μM, 100 μl), […], and 10 rats received a vehicle injection (PBS, 100 μl). IOP was monitored every two days by one independent person i.e. who was blind of the treatment. At the end of the experiments, animals were euthanized and the eyes were immediately conditioned for IHC.

For another experiment, the system named is trabecular meshwork. As to the kind of experiment: Trabecular percent effective filtration length (fluorescent microsphere injection, ex vivo confocal imaging of TMs). It is filed as in vivo, Brown Norway rats. Particulars: glaucomatous eyes; 1 μM, 100 μL, two subconjunctival injections. Here is the method:
(§1) Aqueous humor outflow was measured by in vivo fluorophotometry (FIG. 4A) and the trabecular aqueous outflow evaluated by fluorescent microsphere injection and ex vivo confocal imaging of TMs (data not shown). […] In parallel, rat TM tissues were assessed for cellularity and apoptosis by immunohistofluorescence and TUNEL-labeling.

Experiment [2] relates to rat model of surgically-induced glaucoma. As to the kind of experiment: Aqueous humor outflow by in vivo fluorophotometry in rat glaucoma model. As to conditions: glaucomatous eyes vs vehicle-treated; 1 μM, 100 μL, two subconjunctival injections. Further details: species or system Brown Norway rats. How it is done: as §1
The next experiment has as its system trabecular cells. As to the kind of experiment: Trabecular cell apoptosis by TUNEL-labeling in rat glaucoma model. It is filed as in vivo, Brown Norway rats. As to conditions: glaucoma eyes treated vs untreated. How it is done:
(§2) Eyes were conditioned into cryosections and assessed for apoptosis using TUNEL-labeling. TM was identified in each cryosections as a pigmented slim tissue on the posterior sclera-cornea beside the iris root and just above the endothelial Schlemm's canals.
Investigations were conducted in order to study mechanisms involved in the NBI-74330-related decrease in IOP. Aqueous humor outflow was measured by in vivo fluorophotometry (FIG. 4A) and the trabecular aqueous outflow evaluated by fluorescent microsphere injection and ex vivo confocal imaging of TMs (data not shown). […] This decrease in trabecular outflow facility is similar to what is observed during hypertensive POAG in humans. […] In parallel, rat TM tissues were assessed for cellularity and apoptosis by immunohistofluorescence and TUNEL-labeling.

Another experiment concerns retinal ganglion cells. Put plainly: Apoptosis of Schlemm cells, retinal cells and retinal ganglion cells by TUNEL-labeling in rat glaucoma model. It is filed as in vivo, Brown Norway rats.
Description: as §2
Moreover, NBI-related reduction in IOP was associated with a decrease in retinal ganglion cell apoptosis as assessed by TUNEL-labeling (4.01±0.86, 11.11±3.62, and 5.73±1.15 apoptotic retinal ganglion cells/mm for control eyes, untreated glaucomatous eyes, and NBI-treated glaucomatous eyes, respectively; P<0.05 between each group).

Setting [3] is: glaucoma eyes treated vs untreated.

Entries after “also recorded” stand apart in the source; their conditions may differ.

With `c1cc(CN2CCCNCCNCCCNCC2)ccc1CN1CCCNCCNCCCNCC1` [AMD3100], the figures for the “effect on IOP in control (nonglaucomatous, non-operated) eyes” value in experiment [1] and in experiment [1] (listed as AMD-3100) were “did not affect the IOP; also recorded: had no effect on the basal IOP level” and “had any effect on IOP”, respectively. Moreover, the “effect on IOP in glaucomatous eyes (CXCR4 antagonist comparison)” value in experiment [1] (glaucomatous eyes (n=20)) is reported as “did not affect the IOP”; in experiment [1] (glaucomatous eyes (n=20), listed as AMD-3100) it was “did not influence IOP”.
Regarding `CCOc1ccc(-n2c(C(C)N(Cc3cccnc3)C(=O)Cc3ccc(F)c(C(F)(F)F)c3)nc3ncccc3c2=O)cc1` (stereo not shown) [NBI74330], the “percent effective filtration length (PEFL), trabecular filtrating surface” value with trabecular meshwork is “significantly improved”. In experiment [2], the “aqueous humor outflow (AHO)” value is given as “AHO was improved; also recorded: aqueous humor outflow impairment was significantly reversed”. Also, the “trabecular cell apoptosis (TUNEL)” value with trabecular cells is recorded as “Apoptosis was higher in trabecular cells of untreated glaucoma eyes than in glaucoma eyes treated with NBI74330”; in the experiment with trabecular cells (listed as NBI-74330) it was “Trabecular apoptosis was reversed; also recorded: significantly reduced the amount of apoptotic TCs”. Moreover, in the experiment with retinal ganglion cells (NBI-treated glaucomatous eyes, control eyes 4.01±0.86, untreated glaucomatous eyes 11.11±3.62, P<0.05), the “retinal ganglion cell apoptosis (TUNEL)” value is recorded as 5.73±1.15 apoptotic retinal ganglion cells/mm. The “TUNEL labeling of endothelial Schlemm cells” value in the experiment with retinal ganglion cells (setting [3]) is on record as “more TUNEL labeling in the untreated glaucoma eyes than in glaucoma eyes treated with NBI74330”. Besides, in the experiment on retinal ganglion cells (setting [3]), the “TUNEL labeling of retinal cells (inner nuclear layer and ganglion cell layer)” value was “more TUNEL labeling in the untreated glaucoma eyes than in glaucoma eyes treated with NBI74330”. Further, the “effect on IOP in control (nonglaucomatous, non-operated) eyes” value in experiment [1] is “did not influence the IOP; also recorded: had no effect on the basal IOP level”; in experiment [1] (listed as NBI-74330), “had any effect on IOP”. In addition, in experiment [1] (glaucoma eyes, one single subconjunctival injection, 1 μM, p<0.001), the “duration of reduction in IOP” value stood at 3 days. For the same molecule, in experiment [1] (glaucoma eyes, second subconjunctival injection 4 days after the first one), the “IOP after a second injection” value was “a significantly low IOP was maintained until the end of the experiments”. Moreover, the “time course of IOP lowering after a single injection” value in experiment [1] (glaucoma eyes, single subconjunctival injection 1 μM, 100 μl) is given as “significant the 2nd to the 5th day after the treatment, reaching the average IOP level of control eyes”. The “duration of decrease in IOP” value in experiment [1] (glaucoma eyes, two subconjunctival injections, 1 μM, p<0.001) was found to be 12 days. In addition, in experiment [1] (glaucomatous eyes (n=20), FIG. 2), the “dose dependence of IOP reduction” value is “reduced the IOP in glaucomatous eyes (n=20) in a dose-dependent manner”. Moreover, in experiment [1] (surgically-induced elevated IOP, subconjunctival injection 1 μM, 100 μl), the “effect on IOP in glaucoma eyes” value is recorded as “induced an IOP lowering”.
